Experimental data taken from patent US9333211B2, “Phosphaplatin mediated modulation of pigment epithelial derived factor and uses thereof” (UNIVERSITY OF HOUSTON SYSTEM, priority 2013, dated 2016).
Entries after “also recorded” stand apart in the source; their conditions may differ.

Tests used:
[1] = test system: PEDF gene; assay: PEDF gene expression, Human angiogenesis PCR array (real-time PCR); type: cell-based; details: A2780 cells, 24 hr, ΔΔCT vs β-actin
Description: Human ovarian cancer cell lines, A2780 (Fox Chase) were cultured in 100 mm^3 plates in monolayer by using RPMI medium 1640 supplemented with 10% FBS, 2 mM glutamine, 0.25 units/mL insulin and penicillin/streptomycin (100 units/ml) in a 37° C. incubator continuously gassed with 5% CO2. The cells were treated with either RRD2 and RRD4, 5 μM and 13 μM, respectively, for 24 hrs in triplicate. The cells were collected by 0.025% trypsin-edta and were centrifuged. The pellet of cells was then resuspended in PBS and washed three times with PBS and pelleted. The total RNA isolated using the Qiagen RNeasy Mini kit (Qiagen Inc.) according to the handbook protocol. The quantity of RNA was measured spectrophotometrically at Absorbance 260 nm (1Abs260=40 ug/ml) and the quality of RNA A260:A280 ratio was measured between 1.8 to 2.0. For each experiment, 0.9 μg of total RNA was converted to cDNA using the RT^2 first strand kit (SABiosciences, Qiagen Inc.) and analyzed on the SABiosciences (Qiagen Inc.) PAHS-024C Human angiogenesis array with an Applied Biosciences 7900HT real-time PCR machine according to manufactures protocol. The threshold cycle (Ct) and baseline for each well was determined by instruments software and the resulting Ct values were analyzed using SABiosciences PCR Array Data Analysis Web-based Software (http://sabiosciences.com/pcrarraydataanalysis.php). β-Actin and/or GADPH were used as housekeeping gene for determining fold regulation.

[2] = test system: PEDF protein; assay: PEDF protein expression by immunofluorescence in A2780 cells; type: cell-based, human; details: for PEDF protein expression by immunofluorescence: 12 hour treatment; for PEDF overexpression, time dependence: 3 to 24 hr, 20 and 25 μM
Description: A 6-well plate containing pretreated cover slips was seeded with 500-1000 cells of A2780 human ovarian cancer cell lines in 2.5 ml of RPMI 1640 media (Lonza Walkersville, Frederick, Md.) containing 2.0 mM L-glutamine and supplemented with 10% heat inactivated fetal bovine serum, FBS (Hyclone, Logan, Utah), and 0.25 units/mL recombinant human insulin (Sigma Aldrich, St. Louis, Mo.), 100 U/ml penicillin-streptomycin (Lonza Walkersville, Frederick, Md.). Those cells reaching to 80% confluency were treated with phosphaplatin compounds, RRD2 and RRD4 at various time intervals (3, 6, 12, or 24 hours). Each of the cover slip was washed with PBS three times, and the cells were fixed with freshly prepared 4% paraformaldehyde at room temperature for 20 minutes. The fixed cells were then washed with PBS for three times. These cells were permeablized and blocked with 7.5% bovine serum albumin, BSA/PBS/0.01% triton-X100 at 37° C. for 60 minutes followed by washing the cells with PBS twice. The cover slips were treated with a 1:300 dilution of Pigment epithelium-derived factor (PEDF; also known as serpin F1, SERPINF1) mouse primary antibody (Cell Signalling Technology Inc., Danvers, Mass.) in 7.5% BSA/PBS/0.01% triton for 12-15 hours 37° C. and washed with PBS for three times. The coverslips were incubated with secondary Alexa Fluor 488-conjugated anti-mouse IgG (FITC-Green) (Invitrogen, Carlsbad, Calif.) at a 1:5000 dilution in 7.5% BSA/PBS/0.01% triton-X100 for 1 hour at 37° C. in the dark. The cover-slips were then washed with PBS for another three times. In addition, some treatments were stained for beta-Actin and was stained with Phalloidin (Rhodamine) (Red) (Invitrogen, Carlsbad, Calif.) (7 ul/ml) in 7.5% BSA/PBS/0.01% triton-X100 for 1 hour at 37° C. in the dark. The moist cover-slips were then mounted onto a microscope slide with Ultracruz mounting media containing DAPI (4′,6-diamidino-2-phenylindole) (Blue) (Santa Cruz Biotechnology, Santa Cruz, Calif.) (for identifying the nucleus) and images were then collected on an Olympus FV-1000 inverted stage confocal microscope using a Plan Apo N 60×1.42NA oil immersion objective and processed by FluoView software.

[3] = test system: PEDF protein; assay: PEDF protein expression by Western blot in A2780 cells; type: cell-based, human; details: 3 hrs, 6 hrs and 12 hrs treatment
Description: Treated human ovarian cancer cells (approximately 1×10^6 cells in 60 mm^3 plates at 80-90% confluence) line with 20 μM RRD2 and 25 μM RRD4 for 3, 6 and 12 hrs was washed with PBS for three times. Total protein was extracted by treating the washed cells directly with 200 μl of RIPA (Sigma, St. Louis, Mo.) or MPER (Pierce, USA). Protein extract samples (50 μg) were separated by 12% SDS-PAGE and blotted onto polyvinylidene difluoride (PVDF) membranes. The blots were washed with TBST [10 mM Tris-HCl (pH 7.6), 150 mM NaCl, 0.1% Tween-20], blocked with 5% skim milk and 1% BSA overnight at 4 C, and incubated with the mouse anit-PEDF (Santa Cruz Biotechnology, USA) primary antibody at 1:500 dilutions in TBST with 5% skim milk and 1% BSA overnight at 4° C. The membrane was then washed TBST, and the primary antibodies were detected with secondary antibody goat anti-mouse IgG conjugated to horseradish peroxidase at 1:2500 dilution for 1.5 hours at room temperature. The blots were developed with enhanced chemiluminescence (ECL) (Pierce, USA) and exposed to X-ray film.

[4] = test system: HUVEC tube formation; assay: HUVEC tubulogenesis assay on Matrigel; type: cell-based, human; details: for neovascularization (tube formation) in HUVEC: after 30 min of treatment; for tube formation after treatment: HUVEC on Matrigel, 30 min treatment period
Description: Endothelial cell tubulogenesis assay was performed seeding 20,000 cells of HUVECs in 96-well plate that was pre-coated with 0.1% gelatin and 40 ul of Matrigel and treated with increasing concentration of phosphaplatin compounds, RRD2 and RRD4 in medium 199 (Lonza Walkersville, Frederick, Md.) supplemented with 20% heat-inactivated FBS (Hyclone, Logan, Utah), 100 μg/ml heparin (Sigma Aldrich, St. Louis, Mo.), 100 U/ml penicillin-streptomycin (Lonza Walkersville, Frederick, Md.) and endothelial mitogen (Biomedical Technologies, Stoughton, Mass.). In brief, Matrigel was defrosted overnight at 4° C. and the 0.1% gelatin coated 96 well plate was chilled and 40 μl of Matrigel was coated into each well. The plate was then incubated at 37° C. and 5% CO2 for 1 hour. The 96-well plate was seeded with 2×10^4 cells of HUVECs. After a 24 hour period of cell attachment each well was treated with the increasing concentration of Pt compounds overnight (8-10 hours) at 37° C. and 5% CO2. The capillary/tube formation structures formed were then recorded by an inverted microscope and quantified. Cells were counted in total visual area of 1.575 mm.
To further investigate the anti-angiogenetic behavior of RRD2 and RRD4 on endothelial cell tube formation, we treated HUVECs with different concentration of RRD2 and RRD4 (compounds A and D in FIG. 2) onto Matrigel. After 30 min of incubation with tube-like structures were monitored with an inverted microscope at 40× magnification.

[5] = test system: ARPE19 cells; assay: CellTiter-Glo Luminescent Cell Viability Assay; type: cell-based, human; details: 100 μM, 24 hours of treatment
Description: Promega's CellTiter-Glo® Luminescent Cell Viability Assay was used to determine the number of viable cells in a culture by quantification of ATP (Promega. Madison, Wis.). Briefly, ARPE19 cells, a normal human retinal pigment epithelial cell line, were seeded in a 96 well plate with 10,000-30,000 cells per well and were allowed to attach for 24 hours. Thereafter, the cells were treated with RRD2 or RRD4 at different concentrations ranging from 1 to 100 μM for 24 hours. The detection reagent was prepared per manufactures protocol and equal volume of CellTiter-Glo® reagent was added to each well of cell culture and luminescence read with integration time set for 0.25 to 1 second. The Glo titer Viability Assay has a linear range is from 0 to 50,000 cells per well. Each concentration was done in triplicate.

[6] = test system: PEDF gene; assay: Individual PEDF gene expression, two step qRT-PCR; type: cell-based, human; details: A2780 cells, Single gene expression, endogenous control GADPH
Description: Individual Gene expression for PEDF was assessed by two step qRT-PCR assay. First, RNA isolation and purification was done as described above. A total of 2 μg total RNA was used to reverse-transcribe the template into single-stranded cDNA using RT^2 first strand kit (SABiosciences, Qiagen Inc.). In the second step, the synthesized cDNA was subjected to qRT-PCR RT^2 Primer Set (PEDF) used with SYBR Green real-time PCR master mix detection and endogenous control β-actin and/or GADPH (Applied Biosystems, Foster City, Calif.). All PCR reactions involving cDNA samples from treated and untreated cells were run in triplicate. Quantitative real-time PCR reactions were carried out on the StepOne PCR machine, 48 well system (Applied Biosystems, Foster City, Calif.) according to manufactures protocol. Results were generated using the StepOne software v2.1. The 2^−ΔΔCt method was used to present the relative differences in the mRNA expression levels.

SMILES	Fold change expression of PEDF ([1]; 5 uM)	Fold change expression of PEDF ([1]; 20 uM)	PEDF protein expression by immunofluorescence ([2]; A2780, 20 μM)	PEDF overexpression, time dependence ([2]; human ovarian cells)	treatment time of maximum PEDF protein expression ([2]; immune-fluorescence experiments, human ovarian cells)	PEDF protein expression by Western Blotting ([3]; A2780, 20 μM)	inhibition of HUVEC tube formation on Matrigel ([4]; 0.5 μM, 30 min incubation)	neovascularization (tube formation) in HUVEC ([4]; 1 μM)	tube formation after treatment [4]	effect on viability of ARPE19 retinal cells [5]	Fold change expression of PEDF ([1]; 13 uM)	Fold change expression of PEDF ([6]; 25 uM, 3 hr)	Fold change expression of PEDF ([6]; 50 uM, 24 hr)	PEDF protein expression by immunofluorescence ([2]; A2780, 25 μM)	PEDF protein expression by Western Blotting ([3]; A2780, 25 μM)	neovascularization (tube formation) in HUVEC ([4]; 10 μM)
NC1CCCCC1N.O=P1(O)[O][Pt][O]P(=O)(O)O1 [RRD2, R,R-trans-1,2-cyclohexane-diamine (dihydrogen pyrophospahto)platinum(II)]	2.64 fold	5.79 fold	overexpression; also recorded: overexpressed or upregulated	time dependent overexpression	12 h	overexpression; also recorded: upregulated	more than 85%	inhibition	No tube formation was evident	no effect	–	–	–	–	–	–
NC1CCCCC1N.O=P1(O)OP(=O)(O)[O][Pt]([OH])([OH])[O]1 [RRD4, R,R-trans-1,2-cyclohexane-diamine-trans-dihydroxo(dihydrogenpyrophospahto) platinum(IV)]	–	–	–	time dependent overexpression	–	–	–	–	No tube formation was evident	no effect	2.05 fold	2.1 fold	4.1 fold	overexpression; also recorded: overexpressed or upregulated	overexpression; also recorded: upregulated	inhibition
